The text below walks through data of patent US20070078263A1, “BIARYL SUBSTITUTED HETEROCYCLE INHIBITORS OF LTA4H FOR TREATING INFLAMMATION” (deCODE Chemistry, Inc., priority 2005, published 2007).

The target in one test is T1, human LTA4 hydrolase (Homo sapiens, UniProt P09960).
T1 construct: A human LTA4 hydrolase full-length cDNA clone (NM 000895) was purchased; His tag (6xHis of vector pDEST17); made in house; host or cells: Escherichia coli BL21-AI
T1 sequence (P09960 1-611): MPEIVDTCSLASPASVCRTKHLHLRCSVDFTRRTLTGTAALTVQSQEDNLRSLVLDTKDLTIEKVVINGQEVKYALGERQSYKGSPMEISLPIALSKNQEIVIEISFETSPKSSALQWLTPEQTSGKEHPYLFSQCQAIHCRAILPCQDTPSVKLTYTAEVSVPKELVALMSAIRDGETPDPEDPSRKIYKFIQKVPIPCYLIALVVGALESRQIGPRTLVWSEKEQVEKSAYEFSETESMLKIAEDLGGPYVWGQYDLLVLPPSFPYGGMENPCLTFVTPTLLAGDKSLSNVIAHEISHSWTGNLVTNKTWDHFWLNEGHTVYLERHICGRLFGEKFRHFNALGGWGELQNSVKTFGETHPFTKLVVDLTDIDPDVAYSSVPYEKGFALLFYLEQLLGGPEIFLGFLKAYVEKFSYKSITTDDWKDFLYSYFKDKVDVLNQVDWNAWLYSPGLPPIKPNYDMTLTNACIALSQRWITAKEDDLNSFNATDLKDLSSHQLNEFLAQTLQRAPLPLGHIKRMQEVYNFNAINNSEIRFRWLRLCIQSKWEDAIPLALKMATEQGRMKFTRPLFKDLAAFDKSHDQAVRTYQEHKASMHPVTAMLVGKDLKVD
As to the kind of experiment: In vitro assay testing inhibitory activity against purified recombinant human LTA4 hydrolase (LTB4 formed, LC-MS/MS).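 Further: 200 nM enzyme preincubated 10 min at room temperature with serial inhibitor dilutions in pH 8.0 Tris buffer with BSA and 10% DMSO, then 2 µM LTA4 added.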 Type of test: biochemical.

For a further test, the system named is human whole blood. Kind of test: Ex vivo assay testing inhibitory activity in human whole blood after stimulation with calcium ionophore (LTB4 ELISA).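 Further: heparinized human blood preincubated 15 min at 37 °C with compound, then ionomycin-stimulated for 30 min, LTB4 in plasma supernatant quantified by ELISA.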 Type of test: cell-based. The note with it: Ionomycin 20 μM, read-out: hWBIC50. In general terms: ELISA stands for enzyme-linked immunosorbent assay.
Where [1] appears, read: recombinant human LTA4 hydrolase 200 nM, LTA4 2 μM, read-out: AvgIC50.

Structures can show the parent of a compound that is named as a salt. Where two headings read alike, the source gives them in different places.

From the text for human LTA4 hydrolase: (1) In vitro assay testing inhibitory activity against purified recombinant human LTA4 hydroase. […] The gene was amplified by polymerase chain reaction and transferred via pDONR201 into the bacterial expression vector pDEST17 by recombination (both plasmids from Invitrogen, Carlsbad, Calif.). The resulting construct was transformed into Escherichia coli BL21-AI (Invitrogen), and expression was induced by chemical induction with arabinose. The recombinant enzyme was purified by chromatography on an FPLC system (Amersham Biosciences, Uppsala, Sweden) using immobilized metal affinity chromatography (Ni-NTA Superflow, Qiagen, Hilden, Germany) and anion exchange chromatography (MonoQ HR 10/10, Amersham Biosciences).
The compounds of the invention were incubated in a series of dilutions with 200 nM of recombinant enzyme in assay buffer (100 mM Tris-HCl, 100 mM NaCl, 5 mg/ml fatty-acid free BSA, 10% DMSO, pH 8.0) for 10 min at room temperature to allow binding between LTA4 hydrolase and the inhibitors. LTA4 was prepared by alkaline hydrolysis of LTA4 methyl ester (Biomol, Plymouth Meeting, Pa., or Cayman Chemicals, Ann Arbor, Mich.). A solution of 10 μg of the ester was dried under a nitrogen stream and redissolved in 60 μl of a solution of 80% acetone and 20% 0.25 M NaOH. After incubation for 40 min at room temperature the resulting approximately 500 μM tock of LTA4 was kept at −80° C. for no more than a few days prior to use.
Immediately before the assay, LTA4 was diluted to a concentration of 10 μM in assay buffer (without DMSO) and added to the reaction mixture to a final concentration of 2 μM to initiate the enzyme reaction. […] The samples were then kept at 4° C. overnight to complete protein precipitation and centrifuged for 15 min at 1800 g.
Method for human whole blood: (2) Ex vivo assay testing inhibitory activity in human whole blood after stimulation with calcium ionophor.
Human blood was collected in heparin-containing Vacutainer tubes. […] Then 4 μl of a series of compound dilutions (in DMSO) were added, followed by a 15 min incubation at 37° C. with gentle shaking. After that, blood samples were stimulated by adding Ionomycin (Calbiochem) to a final concentration of 20 μM. After another incubation at 37° C. for 30 min, samples were centrifuged for 5 min at 1800 g and 4° C. Supernatants were taken and LTB4 concentrations were determined using a commercially available enzyme-linked immunosobentassay (R&D Systems, Minneapolis, Minn.) according to the manufacturer's instructions.

Consider `c1ccc(Cc2ccc(OCC3CCCCN3)cc2)cc1` (racemic) [Example 73, (+/−)-2-[(4-Benzylphenoxy)methyl]-piperidine hydrochloride], for which the IC50 on human LTA4 hydrolase (setting [1]) and in the test with human whole blood was below 5 µM throughout.

Regarding `c1ccc(Oc2ccc(OCC3CCCCN3)cc2)cc1` (racemic) [Example 74, (+/−)-2-[(4-phenoxyphenoxy)methyl]-piperidine hydrochloride], the IC50 on human LTA4 hydrolase (setting [1]) and in the test with human whole blood was below 5 µM throughout.

Regarding `O=C(O)CCCN1CCC[C@H]1COc1ccc(Cc2ccccc2)cc1` [Example 3, 4-[(S)-2-(4-benzyl-phenoxymethyl)-pyrrolidin-1-yl]-butyric acid], the IC50 at human LTA4 hydrolase (setting [1]) and in the test on human whole blood was below 5 µM throughout.

Regarding `c1ccc(Cc2ccc(OC[C@H]3CCCN3Cc3ccccn3)cc2)cc1` [Example 4, 2-[(R)-2-(4-benzyl-phenoxymethyl)-pyrrolidin-1-ylmethyl]-pyridine], the IC50 at human LTA4 hydrolase (setting [1]) and with human whole blood was below 5 µM in each case.

Turning to `c1ccc(Cc2ccc(OC[C@H]3CCCN3Cc3cccnc3)cc2)cc1` [Example 5, 3-[(R)-2-(4-benzyl-phenoxymethyl)-pyrrolidin-1-ylmethyl]-pyridine], the IC50 at human LTA4 hydrolase (setting [1]) and in the test with human whole blood was below 5 µM in each case.

`COC(=O)CCCN1CCC[C@@H]1COc1ccc(Cc2ccccc2)cc1` [Example 8, 4-[(R)-2-(4-benzyl-phenoxymethyl)-pyrrolidin-1-yl]-butyric acid methyl ester]: the IC50 on human LTA4 hydrolase (setting [1]) and in the test on human whole blood was below 5 µM in each case.

As to `O=C(O)CCN1CCC[C@@H]1COc1ccc(Cc2ccccc2)cc1` [Example 9, 3-[(R)-2-(4-benzyl-phenoxymethyl)-pyrrolidin-1-yl]-propionic acid hydrochloride], the IC50 at human LTA4 hydrolase (setting [1]) and in the test with human whole blood was below 5 µM throughout.

Turning to `O=C(O)CCCN1CCC[C@@H]1COc1ccc(Cc2ccccc2)cc1` [Example 10, 4-[(R)-2-(4-benzyl-phenoxymethyl)-pyrrolidin-1-yl]-butylic acid hydrochloride], the IC50 at human LTA4 hydrolase (setting [1]) and with human whole blood was below 5 µM each time.

For the compound `Clc1ccc(Oc2ccc(OC[C@H]3CCCN3)cc2)cc1` [Example 13, (R)-2-[4-(4-Chloro-phenoxy)-phenoxymethyl]-pyrrolidine hydrochloride], the IC50 on human LTA4 hydrolase (setting [1]) and in the test on human whole blood was below 5 µM throughout.

Take `FC(F)(F)c1ccc(Oc2ccc(OC[C@H]3CCCN3)cc2)cc1` [Example 16, (R)-2-[4-(4-Trifluoromethyl-phenoxy)-phenoxymethyl]-pyrrolidine hydrochloride]: the IC50 at human LTA4 hydrolase (setting [1]) and in the test with human whole blood was below 5 µM throughout.

For the compound `O=C(O)CCCN1CCC[C@@H]1COc1ccc(Oc2ccc(Cl)cc2)cc1` [Example 20, 4-{(R)-2-[4-(4-Chloro-phenoxy)-phenoxymethyl]-pyrrolidin-1-yl}-butyric acid hydrochloride], in the test with human whole blood, the IC50 was below 5 µM.

As for `O=C(O)CCCN1CCC[C@H]1COc1ccc(Cc2ccc(Cl)cc2)cc1` [Example 21, 4-{(S)-2-[4-(4-Chloro-benzyl)-phenoxymethyl]-pyrrolidin-1-yl}-butyric acid hydrochloride], the IC50 on human LTA4 hydrolase (setting [1]) and in the test on human whole blood was below 5 µM each time.

As for `O=C(O)CCCN1CCC[C@H]1COc1ccc(Oc2ccc(Cl)cc2)cc1` [Example 22, 4-{(S)-2-[4-(4-Chloro-phenoxy)-phenoxymethyl]-pyrrolidin-1-yl}-butyric acid hydrochloride], the IC50 in the test with human whole blood was below 5 µM.

For `NC(=O)CCCN1CCC[C@H]1COc1ccc(Oc2ccc(Cl)cc2)cc1` [Example 23, 4-{(S)-2-[4-(4-Chloro-phenoxy)-phenoxymethyl]-pyrrolidin-1-yl}-butyramide], the IC50 on human LTA4 hydrolase (setting [1]) and in the test on human whole blood was below 5 µM each time.

For `O=C(CCCN1CCC[C@H]1COc1ccc(Oc2ccc(Cl)cc2)cc1)NO` [Example 27, hydrochloride], the IC50 in the test on human whole blood is below 5 µM.

`O=C(O)CCCN1CCC[C@@H]1COc1ccc(Oc2ccc(C(F)(F)F)cc2)cc1` [Example 30, (R)-2-[4-(4-trifluoromethyl-phenoxy)-phenoxymethyl]-pyrrolidine-1-yl}butyric acid sodium salt]: the IC50 on human LTA4 hydrolase (setting [1]) and in the test on human whole blood was below 5 µM in each case.

On to `CS(=O)(=O)NCCCN1CCC[C@H]1COc1ccc(Oc2ccc(Cl)cc2)cc1` [Example 39, N-(3-{(S)-2-[4-(4-Chloro-phenoxy)-phenoxymethyl]-pyrrolidin-1-yl}-propyl)-methanesulfonamide HCl], for which the IC50 on human LTA4 hydrolase (setting [1]) and with human whole blood was below 5 µM in each case.

`NC(=O)NCCCN1CCC[C@H]1COc1ccc(Oc2ccc(Cl)cc2)cc1` [Example 40, (3-{(S)-2-[4-(4-Chloro-phenoxy)-phenoxymethyl]-pyrrolidin-1-yl}-propyl)-urea]: the IC50 with human whole blood was below 5 µM.

With `c1ccc(Oc2ccc(NC[C@H]3CCCN3)cc2)cc1` [Example 42, (4-Phenoxy-phenyl)-(R)-1-pyrrolidin-2-ylmethyl-amine], the IC50 at human LTA4 hydrolase (setting [1]) and in the test with human whole blood was below 5 µM throughout.

Take `Fc1ccc(Oc2ccc(OC[C@H]3CCCN3)cc2)cc1` [Example 49, (R)-2-[4-(4-Fluoro-phenoxy)-phenoxymethyl]-pyrrolidine]: the IC50 at human LTA4 hydrolase (setting [1]) and in the test on human whole blood was below 5 µM throughout.

With `c1ccc(Oc2ccc(OC[C@H]3CCCCN3)cc2)cc1` [Example 50, (R)-2-(4-Phenoxy-phenoxymethyl)-piperidine hydrochloride], the IC50 at human LTA4 hydrolase (setting [1]) and with human whole blood was below 5 µM in each case.

Turning to `c1ccc(Cc2ccc(OC[C@H]3CCCCN3)cc2)cc1` [Example 51, (R)-2-(4-Benzyl-phenoxymethyl)-piperidine hydrochloride], the IC50 at human LTA4 hydrolase (setting [1]) and in the test with human whole blood was below 5 µM throughout.

As to `c1ccc(Oc2ccc(OC[C@@H]3CCCCN3)cc2)cc1` [Example 52, (S)-2-(4-Phenoxy-phenoxymethyl)-piperidine hydrochloride], the IC50 at human LTA4 hydrolase (setting [1]) and in the test on human whole blood was below 5 µM each time.

In the case of `O=C(O)CCCN1CCC[C@@H]1COc1ccc(Oc2ccc(-c3nccs3)cc2)cc1` [Example 147, 4-{(R)-2-[4-(4-Thiazol-2-yl-phenoxy)-phenoxymethyl]-pyrrolidin-1-yl}-butyric acid], the IC50 in the test on human whole blood was below 5 µM.

On to `c1ncn(-c2ccc(Oc3ccc(OC[C@H]4CCCN4)cc3)cc2)n1` [Example 153, 1-{4-[4-((R)-1-Pyrrolidin-2-ylmethoxy)-phenoxy]-phenyl}-1H-[1,2,4]triazole hydrochloride salt], for which the IC50 on human LTA4 hydrolase (setting [1]) was below 5 µM.

For `c1ccc(Cc2ccc(COC[C@H]3CCCN3)cc2)cc1` [Example 156, hydrochloride salt], the IC50 at human LTA4 hydrolase is below 5 µM.

As for `O=C(O)CCCN1CCC[C@@H]1COCc1ccc(Cc2ccccc2)cc1` [Example 157, 4-[(R)-2-(4-Benzyl-benzyloxymethyl)pyrrolidin-1-yl]butylic acid hydrochloride salt], the IC50 on human LTA4 hydrolase (setting [1]) was below 5 µM.

For `O=C(O)CCCN1CCC[C@@H]1COc1ccc(Cc2ccc(-c3ccccc3)s2)cc1` [Example 160, 4-{(R)-2-[4-(5-Phenyl-thiophen-2-ylmethyl)-phenoxymethyl]-pyrrolidin-1-yl}-butyric acid], the IC50 on human LTA4 hydrolase (setting [1]) is below 5 µM.

With `c1ccc(-c2ccc(Cc3ccc(OC[C@@H]4CCCN4)cc3)s2)cc1` [Example 161, (S)-2-[4-(5-Phenyl-thiophen-2-ylmethyl)-phenoxymethyl]-pyrrolidine hydrochloride salt], the IC50 at human LTA4 hydrolase (setting [1]) is below 5 µM.

Regarding `O=C(O)CCCN1CCC[C@H]1COc1ccc(Cc2ccc(-c3ccccc3)s2)cc1` [Example 162, 4-{(S)-2-[4-(5-Phenyl-thiophen-2-ylmethyl)-phenoxymethyl]-pyrrolidin-1-yl}-butyric acid], the IC50 on human LTA4 hydrolase (setting [1]) is below 5 µM.

Turning to `c1ccc(-c2ccc(Cc3ccc(OC[C@H]4CCCN4)cc3)o2)cc1` [Example 163, (R)-2-[4-(5-Phenyl-furan-2-ylmethyl)-phenoxymethyl]-pyrrolidine], the IC50 on human LTA4 hydrolase (setting [1]) was below 5 µM.

For the compound `O=C(O)CCN1CCC[C@@H]1COc1ccc(Oc2ccccn2)cc1` [Example 168, 3-{2-[4-(Pyridin-2-yloxy)-phenoxymethyl]-pyrrolidin-1-yl}-propionic acid], on human LTA4 hydrolase (setting [1]), the IC50 was below 5 µM.

`c1ccc(Cc2ccc(-c3ccc(OC[C@H]4CCCN4)cc3)s2)cc1` [Example 170, (R)-2-[4-(5-Benzyl-thiophen-2-yl)-phenoxymethyl]-pyrrolidine]: the IC50 on human LTA4 hydrolase (setting [1]) is below 5 µM.

On to `O=C(O)CCCN1CCC[C@@H]1COc1ccc(-c2ccc(Cc3ccccc3)s2)cc1` [Example 171, 4-{(R)-2-[4-(5-Benzyl-thiophen-2-yl)-phenoxymethyl]-pyrrolidin-1-yl}-butyric acid], for which the IC50 on human LTA4 hydrolase (setting [1]) is below 5 µM.

With `c1ccc(Cc2ccc(-c3ccc(OC[C@@H]4CCCN4)cc3)s2)cc1` [Example 172, (S)-2-[4-(5-Benzyl-thiophen-2-yl)-phenoxymethyl]-pyrrolidine], the IC50 on human LTA4 hydrolase (setting [1]) is below 5 µM.

Turning to `Cc1ccc(Oc2ccc(OC[C@@H]3CCCN3)cc2)cc1` [compound 37], the IC50 on human LTA4 hydrolase (setting [1]) was below 5 µM.

In the case of “(S)-2-[4-(2-thiophen-benzyl)-phenoxymethyl]-pyrrolidine hydrogen chloride salt [Example 117]”, in the test with human whole blood, the IC50 is below 5 µM.
